Data on eight compounds can be found in ChEMBL document CHEMBL3232955, “Impact of stereospecific intramolecular hydrogen bonding on cell permeability and physicochemical properties” (J Med Chem, 2014).

≈ marks a conversion by molar mass, not a printed value.

The nature of data set [1]: Solubility of the compound in phosphate buffered saline at pH 7.4 containing 1% DMSO after 18 hrs by UPLC-MS method. The format is physicochemical. The following applies: phosphate buffered saline with 1% DMSO.
A short description of data set [2]: Dissociation constant, pKa of the compound for N15, 3'-amine group by dip probe absorption spectroscopy. The format is physicochemical.
Data set [3] can be described thus: Dissociation constant, pKa of the compound for N34 pyridine group by dip probe absorption spectroscopy. It is filed as physicochemical.
A short description of data set [4]: Efflux ratio of apparent permeability from basolateral to apical side to apical to basolateral side of human Caco2 cells. The format is ADME, cell-based. The conditions noted are these: Caco-2.
Data set [5] is described as follows: Lipophilicity, log D of the compound by shake flask technique. It is filed as physicochemical. The conditions noted are these: octanol/water.

Regarding `C[C@@H](CO)N1C(=O)c2cccc(NC(=O)c3ccncc3)c2O[C@@H](CN(C)Cc2ccc(Oc3ccccc3)cc2)[C@@H]1C`, the solubility (kinetic) (usually the concentration staying in solution when a stock, usually in DMSO, is diluted into the medium) at 18 h in data set [1] came to 1 µM (≈ 0.581 µg/mL). Also, the pKa (commonly the pH at which an ionisable group is half protonated) in data set [2] came to 6.08; in data set [3], 2.76. Besides, in data set [4], the efflux ratio (commonly a quotient of directional permeabilities that is used to spot active efflux) amounted to 0.36.

Take `C[C@@H]1[C@@H](CN(C)Cc2ccc(Oc3ccccc3)cc2)Oc2c(NC(=O)c3ccncc3)cccc2C(=O)N1[C@@H](C)CO`: the solubility (kinetic) at 18 h in data set [1] was determined as 1 µM (≈ 0.581 µg/mL). Moreover, the pKa was found to be 6.18 in data set [2] and 2.77 in data set [3]. In addition, the efflux ratio in data set [4] turned out to be 0.1.

In turn, `C[C@H](CO)N1C(=O)c2cccc(NC(=O)c3ccncc3)c2O[C@@H](CN(C)Cc2ccc(Oc3ccccc3)cc2)[C@@H]1C` yielded a solubility (kinetic) at 18 h in data set [1] of 2 µM (≈ 1.16 µg/mL). In addition, the pKa in data set [2] amounted to 6.14; in data set [3] it was 2.76. Moreover, the efflux ratio in data set [4] came out at 0.42.

For `C[C@H](CO)N1C(=O)c2cccc(NC(=O)c3ccncc3)c2O[C@H](CN(C)Cc2ccc(Oc3ccccc3)cc2)[C@H]1C`, the solubility (kinetic) at 18 h in data set [1] was 1 µM (≈ 0.581 µg/mL). The pKa worked out at 6.08 in data set [2] and 2.77 in data set [3]. In addition, the efflux ratio in data set [4] was 0.31.

`C[C@H](CO)N1C(=O)c2cccc(NC(=O)c3ccncc3)c2O[C@@H](CN(C)Cc2ccc(Oc3ccccc3)cc2)[C@H]1C` registered a kinetic solubility at 18 h in data set [1] of 86 µM (≈ 49.9 µg/mL). In addition, in data set [5], the logD (usually the decadic logarithm of the distribution of all forms, ionised or not, between an organic phase and buffer at a given pH) came out at 3.4. For the same compound, the pKa in data set [2] amounted to 7.07; in data set [3], 2.98. Further, the efflux ratio in data set [4] was found to be 0.47.

`C[C@@H](CO)N1C(=O)c2cccc(NC(=O)c3ccncc3)c2O[C@H](CN(C)Cc2ccc(Oc3ccccc3)cc2)[C@@H]1C` showed a kinetic solubility at 18 h in data set [1] of 93 µM (≈ 54 µg/mL). The compound also displayed a logD in data set [5] of 3.4. The pKa in data set [2] was found to be 7.08; in data set [3], 2.98. Further, the efflux ratio in data set [4] was 0.41.

In data set [1], `C[C@H](CO)N1C(=O)c2cccc(NC(=O)c3ccncc3)c2O[C@H](CN(C)Cc2ccc(Oc3ccccc3)cc2)[C@@H]1C` showed a solubility (kinetic) at 18 h of 98 µM (≈ 56.9 µg/mL). In data set [5], the pH-dependent lipophilicity (logD) was 3.4. Also, the pKa amounted to 7.16 in data set [2] and 2.98 in data set [3]. Moreover, in data set [4], the efflux ratio amounted to 0.36.

`C[C@@H]1[C@H](CN(C)Cc2ccc(Oc3ccccc3)cc2)Oc2c(NC(=O)c3ccncc3)cccc2C(=O)N1[C@@H](C)CO` displayed a solubility (kinetic) at 18 h in data set [1] of 87 µM (≈ 50.5 µg/mL). Moreover, in data set [5], the pH-dependent lipophilicity (logD) amounted to 3.4. Besides, the pKa turned out to be 7.16 in data set [2] and 2.97 in data set [3]. The efflux ratio in data set [4] worked out at 0.48.
